Assay results taken from patent US7728012B2, “Carboxamide compounds and their use as calpain inhibitors” (Abbott GmbH & Co. KG, priority 2006, dated 2010).

What was measured:
Assay type in all cases: biochemical
[1] = biological target: T1, calpain-I isolated from human erythrocytes (Homo sapiens, UniProt P07384); experiment: Calpain I kinetic fluorescence enzyme inhibition assay; conditions: apparent Ki from IC50 by Cheng-Prussoff; average of 2 to 4 dose-effect plots
T1 construct: calpain-I—isolated from human erythrocytes; purchased Calbiochem 208713; host or cells: human erythrocytes (tissue isolate)
T1 sequence (P07384 1-714): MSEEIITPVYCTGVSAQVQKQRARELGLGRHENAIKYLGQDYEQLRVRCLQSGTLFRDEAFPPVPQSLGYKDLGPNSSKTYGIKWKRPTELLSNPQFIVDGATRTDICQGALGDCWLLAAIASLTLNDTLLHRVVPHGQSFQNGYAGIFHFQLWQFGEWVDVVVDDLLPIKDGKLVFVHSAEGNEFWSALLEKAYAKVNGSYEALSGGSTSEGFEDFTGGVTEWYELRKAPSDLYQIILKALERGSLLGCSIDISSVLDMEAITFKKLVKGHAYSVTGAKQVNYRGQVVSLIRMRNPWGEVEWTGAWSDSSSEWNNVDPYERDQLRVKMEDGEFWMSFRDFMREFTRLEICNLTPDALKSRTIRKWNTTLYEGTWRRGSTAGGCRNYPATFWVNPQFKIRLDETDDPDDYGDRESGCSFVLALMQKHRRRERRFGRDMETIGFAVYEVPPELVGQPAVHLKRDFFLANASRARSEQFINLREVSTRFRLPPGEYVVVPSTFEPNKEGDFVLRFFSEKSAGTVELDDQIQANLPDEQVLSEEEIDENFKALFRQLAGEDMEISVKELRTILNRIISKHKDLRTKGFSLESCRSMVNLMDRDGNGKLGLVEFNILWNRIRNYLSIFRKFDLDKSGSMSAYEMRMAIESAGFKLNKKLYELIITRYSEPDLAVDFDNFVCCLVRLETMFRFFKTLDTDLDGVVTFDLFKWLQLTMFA
T1 sequence (P04632 1-268 partner): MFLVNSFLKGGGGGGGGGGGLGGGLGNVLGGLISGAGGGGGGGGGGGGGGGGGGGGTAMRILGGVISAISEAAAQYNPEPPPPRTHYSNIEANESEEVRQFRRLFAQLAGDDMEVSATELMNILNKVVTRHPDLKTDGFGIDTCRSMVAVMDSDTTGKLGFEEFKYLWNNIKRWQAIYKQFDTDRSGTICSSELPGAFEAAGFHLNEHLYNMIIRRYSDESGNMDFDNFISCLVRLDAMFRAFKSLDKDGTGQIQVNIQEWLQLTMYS

[2] = biological target: T2, cathepsin K activated from recombinant human procathepsin K (Homo sapiens, UniProt P43235); experiment: Cathepsin K kinetic fluorescence enzyme inhibition assay; conditions: selectivity ratio versus calpain I
T2 construct: purchased Calbiochem 342001; host or cells: E. coli
T2 sequence (P43235 115-329): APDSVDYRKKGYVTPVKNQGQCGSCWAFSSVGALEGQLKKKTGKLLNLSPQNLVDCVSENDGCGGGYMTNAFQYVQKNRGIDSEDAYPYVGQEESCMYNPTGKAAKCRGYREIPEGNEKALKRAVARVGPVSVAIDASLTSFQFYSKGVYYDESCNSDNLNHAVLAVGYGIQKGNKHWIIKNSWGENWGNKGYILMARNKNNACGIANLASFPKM
Experimental: (§1) The following solutions and buffers were employed: • HBS (for 40 ml): 800 μl M HEPES; 2.16 ml 100 mM KCl; 4.8 ml 1M NaCl; 3.59 ml 5% glucose; 60 μl μM MgSO4; 400 μl 100 mM Na pyruvate, 28.19 ml water; pH 7.2-7.5. • lysis buffer (for 20 ml): 400 μl M Tris pH 8.2; 2.74 ml 1M NaCl; 520 μl 0.5M EDTA; 2 ml 10% triton X-100; 0.8 ml (=1:25) CompletePlus (1 tablet/2 ml H2O); 200 μl 100 mM Pefabloc; 13.34 ml water, pH 8.2. • TBST (10×) (for 1 l): 100 mM Tris (12.1 g); 1.5M NaCl (87 g); 1% Tween 20 (10 g), adjusted to pH 8. I Enzyme Inhibition In Vitro: • Testing for blockade of the corresponding enzymic activities was carried out by means of kinetic fluorescence assays (excitation 390 nm, emission 460 nm). • Apparent Ki values were calculated from the experimentally determined IC50 values by the Cheng-Prussoff relation assuming a reversible competitive enzyme inhibition. The Km values of the substrates used under the assay conditions indicated above were: 90 μM (Z-Phe-Arg-AMC, cathepsin B), 10 μM (Z-Gly-Pro-Arg-AMC, cathepsin K), 2 μM (Z-Phe-Arg-AMC, cathepsin L), and 30 μM (Z-Val-Val-Arg-AMC, cathepsin S). • The indicated Ki values are averages of the inhibition constants calculated on the basis of 2 to 4 independent dose-effect plots.
(§2) The following assays were used: • 1. Calpain I: • 20 nM calpain-I—isolated from human erythrocytes (Calbiochem #208713), 100 μM Suc-Leu-Tyr-AMC (Bachem #1-1355) as substrate in buffer with 62 mM imidazole, 0.3 mM CaCl2, 0.10% CHAPS, 0.05% BSA, 1 mM DTT at pH 7.3 and room temperature. • 2. Cathepsin B: • 0.25 nM cathepsin B—isolated from human liver (Calbiochem #219362), 100 μM Z-Phe-Arg-AMC (Bachem #I-1160) as substrate 50 mM MES, 2 mM EDTA, 0.05% Brij 35, 2.5 mM L-cysteine, pH 6.0, room temperature. • 3. Cathepsin K: • 3 nM cathepsin K—activated from recombinant human procathepsin K from E. coli (Calbiochem #342001), 10 μM Z-Gly-Pro-Arg-AMC (Biomol #P-142) as substrate in 50 mM MES, 2 mM EDTA, 0.05% Brij 35, 2.5 mM L-cysteine, pH 6.0, room temperature. • 4. Cathepsin L: • 1 nM cathepsin L—isolated from human liver (Calbiochem #219402), 2 μM Z-Phe-Arg-AMC (Bachem #1-1160) as substrate in 50 mM MES, 2 mM EDTA, 0.05% Brij 35, 2.5 mM L-cysteine, pH 6.0, room temperature. • 5. Cathepsin S: • 0.5 nM recombinant human cathepsin S from E. coli (Calbiochem #219343), 20 μM Z-Val-Val-Arg-AMC (Bachem #1-1540) as substrate in 50 mM MES, 2 mM EDTA, 0.05% Brij 35, 2.5 mM L-cysteine, pH 6.0, room temperature. • The results of the in vitro determination are indicated in Table 1. The following abbreviations are used in Table 1: • The “Calpain activity” column, ++ stands for a calpain Ki (Ki(calpain)) of ≦40 nM and + means: 40 nM<Ki(Calpain)≦100 nM. • The “Sel. cat. B” column indicates the Ki(cathepsin B)/Ki(calpain) ratio. In this connection, ++ means a Ki(cathepsin B)/Ki(calpain) ratio of ≧30 and + means 10≦Ki(cathepsin B)/Ki(calpain)<30. • The “Sel. cat. K” column indicates the Ki(cathepsin K)/Ki(calpain) ratio. In this connection, ++ means a Ki(cathepsin K)/Ki(calpain) ratio of ≧30 and + means 10≦Ki(cathepsin K)/Ki(calpain)<30. • The “Sel. cat. L” column indicates the Ki(cathepsin L)/Ki(calpain) ratio. In this connection, ++ means a Ki(cathepsin L)/Ki(calpain) ratio of ≧50 and + means 30≦Ki(cathepsin L)/Ki(calpain)<50. • The “Sel. cat. S” column indicates the Ki(cathepsin S)/Ki(calpain) ratio. In this connection, ++ means a Ki(cathepsin S)/Ki(calpain) ratio of ≧100 and + means 50≦Ki(cathepsin S)/Ki(calpain)<100.

[3] = biological target: T3, cathepsin L isolated from human liver (Homo sapiens, UniProt P07711); experiment: Cathepsin L kinetic fluorescence enzyme inhibition assay; conditions: selectivity ratio versus calpain I
T3 construct: cathepsin L—isolated from human liver; purchased Calbiochem 219402; host or cells: human liver (tissue isolate)
T3 sequence (P07711 114-333): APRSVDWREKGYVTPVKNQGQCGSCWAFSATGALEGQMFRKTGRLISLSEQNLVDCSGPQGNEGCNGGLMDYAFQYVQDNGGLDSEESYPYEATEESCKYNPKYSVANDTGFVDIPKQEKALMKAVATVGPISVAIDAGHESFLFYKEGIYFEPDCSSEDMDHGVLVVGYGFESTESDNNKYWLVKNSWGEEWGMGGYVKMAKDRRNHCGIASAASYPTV
Method in brief: (§3)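 Inhibition is measured at room temperature in cysteine-containing MES buffer, pH 6.0, by continuous fluorescence at 460 nm. Cathepsin S (0.5 nM) uses 20 μM Z-Val-Val-Arg-AMC; L (1 nM) and B (0.25 nM) use Z-Phe-Arg-AMC at 2 and 100 μM respectively.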

[4] = biological target: T4, recombinant human cathepsin S (Homo sapiens, UniProt P25774); experiment: Cathepsin S kinetic fluorescence enzyme inhibition assay; conditions: selectivity ratio versus calpain I
T4 construct: purchased Calbiochem 219343; host or cells: E. coli
T4 sequence (P25774 115-331): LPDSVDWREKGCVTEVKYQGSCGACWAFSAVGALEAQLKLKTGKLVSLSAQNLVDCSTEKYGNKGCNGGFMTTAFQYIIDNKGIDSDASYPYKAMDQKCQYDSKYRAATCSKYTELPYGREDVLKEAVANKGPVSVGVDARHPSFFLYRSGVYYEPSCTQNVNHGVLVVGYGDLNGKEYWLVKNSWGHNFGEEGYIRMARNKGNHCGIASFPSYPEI
Method in brief: as §3

[5] = biological target: T5, cathepsin B isolated from human liver (Homo sapiens, UniProt P07858); experiment: Cathepsin B kinetic fluorescence enzyme inhibition assay; conditions: selectivity ratio versus calpain I
T5 construct: cathepsin B—isolated from human liver; purchased Calbiochem 219362; host or cells: human liver (tissue isolate)
Experimental: as §1, §2

| Compound | Ki [1] [nM] | Sel cat. K (Ki(cathepsin K)/Ki(calpain) ratio) [2] | Sel cat. L (Ki(cathepsin L)/Ki(calpain) ratio) [3] | Sel cat. S (Ki(cathepsin S)/Ki(calpain) ratio) [4] | Sel cat. B (Ki(cathepsin B)/Ki(calpain) ratio) [5] |
| --- | --- | --- | --- | --- | --- |
| Cl.NC(=O)C(=O)C(Cc1ccccc1)NC(=O)c1cccnc1-n1ccc(-c2ccc(N3CCOCC3)cc2)n1 (centres unmarked) [Example 29, N-(3-Amino-1-benzyl-2,3-dioxopropyl)-2-[3-(4-morpholin-4-ylphenyl)-1H-pyrazol-1-yl]nicotinamide hydrochloride] | ≤ 40 | + (10≦Ki(cathepsin K)/Ki(calpain)<30) | ++ (Ki(cathepsin L)/Ki(calpain) ratio of ≧50) | ++ (Ki(cathepsin S)/Ki(calpain) ratio of ≧100) | – |
| NC(=O)C(=O)C(Cc1cccs1)NC(=O)c1cccnc1-n1ccc(-c2ccccc2)n1 (centres unmarked) [Example 40, N-[3-Amino-2,3-dioxo-1-(2-thienylmethyl)propyl]-2-(3-phenyl-1H-pyrazol-1-yl)pyridine-3-carboxamide] | ≤ 40 | – | ++ (Ki(cathepsin L)/Ki(calpain) ratio of ≧50) | ++ (Ki(cathepsin S)/Ki(calpain) ratio of ≧100) | + (10≦Ki(cathepsin B)/Ki(calpain)<30) |
| CN1CCN(c2ccc(-c3ccn(-c4ncccc4C(=O)NC(Cc4ccccc4)C(=O)C(N)=O)n3)cc2)CC1 (centres unmarked) [Example 68, N-(3-Amino-1-benzyl-2,3-dioxopropyl)-2-{3-[4-(4-methylpiperazin-1-yl)phenyl]-1H-pyrazol-1-yl}nicotinamide] | 40 to 100 | + (10≦Ki(cathepsin K)/Ki(calpain)<30) | – | ++ (Ki(cathepsin S)/Ki(calpain) ratio of ≧100) | – |
| Cc1cn(-c2ncccc2C(=O)NC(Cc2ccccc2)C(=O)C(N)=O)nc1-c1ccccc1 (centres unmarked) [Example 84, N-(3-Amino-1-benzyl-2,3-dioxopropyl)-2-(4-methyl-3-phenyl-1H-pyrazol-1-yl)nicotinamide] | ≤ 40 | – | ++ (Ki(cathepsin L)/Ki(calpain) ratio of ≧50) | ++ (Ki(cathepsin S)/Ki(calpain) ratio of ≧100) | + (10≦Ki(cathepsin B)/Ki(calpain)<30) |
| NC(=O)C(=O)C(Cc1ccc(Br)cc1)NC(=O)c1cccnc1-n1ccc(-c2ccccc2)n1 (centres unmarked) [Example 122, N-{3-Amino-1-[(4-bromophenyl)methyl]-2,3-dioxopropyl}-2-(3-phenyl-1H-pyrazol-1-yl)pyridine-3-carboxamide] | ≤ 40 | – | ++ (Ki(cathepsin L)/Ki(calpain) ratio of ≧50) | ++ (Ki(cathepsin S)/Ki(calpain) ratio of ≧100) | ++ (Ki(cathepsin B)/Ki(calpain) ratio of ≧30) |
| CC(C)c1ccc2c(c1)-c1nn(-c3ncccc3C(=O)NC(Cc3ccccc3)C(=O)C(N)=O)cc1CO2 (centres unmarked) [Example 144, N-[3-Amino-2,3-dioxo-1-(phenylmethyl)propyl]-2-[8-(1-methylethyl)chromeno[4,3-c]pyrazol-2(4H)-yl]pyridine-3-carboxamide] | ≤ 40 | – | ++ (Ki(cathepsin L)/Ki(calpain) ratio of ≧50) | ++ (Ki(cathepsin S)/Ki(calpain) ratio of ≧100) | + (10≦Ki(cathepsin B)/Ki(calpain)<30) |
| N#Cc1cnc(-n2ccc(-c3ccccc3F)n2)c(C(=O)NC(Cc2ccccc2)C(=O)C(N)=O)c1 (centres unmarked) [Example 188, N-[3-Amino-2,3-dioxo-1-(phenylmethyl)propyl]-5-cyano-2-[3-(2-fluorophenyl)-1H-pyrazol-1-yl]pyridine-3-carboxamide] | 40 to 100 | ++ (Ki(cathepsin K)/Ki(calpain) ratio of ≧30) | ++ (Ki(cathepsin L)/Ki(calpain) ratio of ≧50) | – | – |
| N-{3-Amino-1-[(4-fluorophenyl)methyl]-2,3-dioxopropyl}-2-[3-(2,3-dichlorophenyl)-1H-pyrazol-1-yl]pyridine-3-carboxamide [Example 161] | – | – | + (30≦Ki(cathepsin L)/Ki(calpain)<50) | ++ (Ki(cathepsin S)/Ki(calpain) ratio of ≧100) | + (10≦Ki(cathepsin B)/Ki(calpain)<30) |
